Earlier results as cited in patent US9387185B2, “N-ω-hydroxy-L-arginine derivatives for the treatment of diseases” (Christian-Albrechts-Universität Zu Kiel, priority 2009, dated 2016).

Tests used:
rats = conditions: i.v.
arginase I = biological target: T1, arginase I (Homo sapiens, UniProt P05089)
T1 sequence (P05089 1-322): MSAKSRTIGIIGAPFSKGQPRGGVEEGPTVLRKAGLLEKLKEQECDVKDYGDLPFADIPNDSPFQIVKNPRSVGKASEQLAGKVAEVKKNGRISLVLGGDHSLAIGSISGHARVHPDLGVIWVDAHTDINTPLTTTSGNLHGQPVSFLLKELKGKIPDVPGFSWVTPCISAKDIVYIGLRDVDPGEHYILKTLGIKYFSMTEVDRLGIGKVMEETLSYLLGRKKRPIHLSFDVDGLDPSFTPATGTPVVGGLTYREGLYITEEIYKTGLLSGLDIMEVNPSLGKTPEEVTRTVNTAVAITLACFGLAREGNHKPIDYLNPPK

N=C(NO)NCCC[C@H](N)C(=O)O [NOHA, N^ω-hydroxy-L-arginine]
effects for treating the erectile dysfunction, endothelial dysfunction and hypertension (rats): desired effects for treating the erectile dysfunction, endothelial dysfunction and hypertension could already be demonstrated | Ki (arginase I): 30 to 42 µM
